# Data published in US10669300B2, “Methods of separating gemcitabine-phosphate diastereoisomers” (NuCana plc, priority 2014, dated 2020).
# Assays:
# [1] = Solvent screening: amounts of the two epimers in solution after slurrying NUC-1031 mixture; assay type: physicochemical; details: for epimer in solution: 33:67 (R):(S) mixture in 1 mL, stirred overnight
# Method: First a solvent screening was conducted with 17 different solvents (see Table 1). Approximately 25 mg of a diastereomeric mixture (33:67 (R):(S)) of NUC-1031 was suspended in the listed solvents (1 mL) and stirred overnight. In case dissolution occurred more solid was added. The suspensions were sedimented and the relative amounts of the two diastereoisomers in solution was determined by HPLC.
# [2] = Crystallisation optimisation: slurries in acetonitrile and isopropanol, epimers in solution; assay type: physicochemical; details: 20° C., 200 mg 33:67 (R):(S) mixture
# Method: The enrichment provided by acetonitrile and isopropanol were evaluated at a range of concentrations and temperatures (see Table 2). Two types of experiments were conducted: simple slurries (20° C.) in different volumes and slurries/recrystallisations at 80° C. For the experiments 200 mg of the diastereomeric mixture (33:67 (R):(S)) was suspended in the solvents and volume indicated below and optionally heated to reflux and cooled to 20° C. The suspensions were stirred overnight and isolated. The relative proportions of the two epimers present in both the solution and in the solid cake were determined by HPLC.
# [3] = Solubility in mixtures of polar organic solvents with water; assay type: physicochemical
# Text: It has recently been discovered that the (S)-epimer 3 of gemcitabine-[phenyl-benzoxy-L-alaninyl)]-phosphate has sufficient solubility in mixtures of a number of polar organic solvents with water to render it suitable for formulation and administration as a therapeutic agent. […] In certain solvent mixtures the difference in solubility between the (S)-epimer and the (R)-epimer is over 100 fold. It is expected therefore that more clinically effective, practical and patient friendly administration methods can be developed using the (S)-epimer than can be developed using the (R)-epimer or using the mixture. It is thus desirable to be able to provide gemcitabine-[phenyl-benzoxy-L-alaninyl)]-(S)-phosphate 3 in substantially diastereoisomerically pure form.
# [4] = tested on: isolated human hepatic cells; assay: Half-life on incubation with isolated human hepatic cells; assay type: in vitro ADME
# Text: The longer half-life associated with (R)-isomer indicates a lower intrinsic clearance and should result in a different pharmacokinetic and pharmacodynamic profile to the (S)-isomer which may offer some benefits.
# [5] = Crystallisation optimisation: slurries in acetonitrile and isopropanol, epimers in solution; assay type: physicochemical; details: 83° C. (heated to reflux, cooled to 20° C.), 200 mg 33:67 (R):(S) mixture
# Solubility in water = assay type: physicochemical; details: regardless of salt content or pH
# Text: It also has implications for the development of efficient manufacturing processes which will allow NUC-1031 to be produced cost effectively.
Compound,epimer in solution ([1]; solvent ACN),epimer in solution ([1]; solvent EtOAc),epimer in solution ([1]; solvent EtOH),epimer in solution ([1]; solvent H2O),epimer in solution ([1]; solvent IPA),epimer in solution ([1]; solvent MEK),epimer in solution ([1]; solvent MIBK),epimer in solution ([1]; solvent MeOH),epimer in solution ([1]; solvent MeTHF),epimer in solution ([1]; solvent TBME),epimer in solution ([1]; solvent THF),epimer in solution ([1]; solvent acetone),epimer in solution ([1]; solvent iPrOAc),epimer in solution ([1]; solvent nBuOH),epimer in solution ([1]; solvent nPrOH),epimer in solution ([1]; solvent nheptane),epimer in solution ([1]; solvent toluene),"epimer in solution ([2]; ACN solution, 5 mL)","epimer in solution ([2]; ACN solution, 10 mL)","epimer in solution ([2]; ACN solution, 15 mL)",further results
"C[C@H](N[P@@](=O)(OC[C@H]1O[C@@H](n2ccc(N)nc2=O)C(F)(F)C1O)Oc1ccccc1)C(=O)OCc1ccccc1 (single isomer, unassigned; epimer 2) [(R)-epimer]",1.1 mg/mL,0.7 mg/mL,4.9 mg/mL,0.5 mg/mL,1.6 mg/mL,0.9 mg/mL,0.7 mg/mL,22.8 mg/mL,0.6 mg/mL,0.1 mg/mL,3.0 mg/mL,2.2 mg/mL,0.6 mg/mL,1.6 mg/mL,2.2 mg/mL,0.4 mg/mL,0.2 mg/mL,0.67 mg/mL,0.59 mg/mL,0.63 mg/mL,"epimer in solution ([2]; IPA solution, 5 mL): 0.77 mg/mL; epimer in solution ([2]; IPA solution, 10 mL): 0.77 mg/mL; epimer in solution ([2]; IPA solution, 15 mL): 0.58 mg/mL; solubility compared with the (S)-epimer ([3]; mixtures of polar organic solvents with water): considerably lower; half-life relative to that of the (S)-epimer [4]: four times; epimer in solution ([5]; ACN solution, 5 mL): 1.01 mg/mL; epimer in solution ([5]; ACN solution, 10 mL): 1.09 mg/mL; epimer in solution ([5]; ACN solution, 15 mL): 1.19 mg/mL; epimer in solution ([5]; IPA solution, 5 mL): 1.42 mg/mL; epimer in solution ([5]; IPA solution, 10 mL): 3.38 mg/mL"
"C[C@H](N[P@](=O)(OC[C@H]1O[C@@H](n2ccc(N)nc2=O)C(F)(F)C1O)Oc1ccccc1)C(=O)OCc1ccccc1 (single isomer, unassigned; epimer 2) [(S)-epimer]",10.0 mg/mL,1.1 mg/mL,15.7 mg/mL,0.9 mg/mL,13.0 mg/mL,3.2 mg/mL,1.0 mg/mL,35.1 mg/mL,1.2 mg/mL,0.1 mg/mL,6.6 mg/mL,7.7 mg/mL,0.6 mg/mL,14.4 mg/mL,10.8 mg/mL,0.4 mg/mL,0.7 mg/mL,9.04 mg/mL,8.85 mg/mL,9.74 mg/mL,"solubility compared with the (R)-epimer ([1]; in all solvents tested): higher solubility; epimer in solution ([2]; IPA solution, 5 mL): 17.75 mg/mL; epimer in solution ([2]; IPA solution, 10 mL): 12.98 mg/mL; epimer in solution ([2]; IPA solution, 15 mL): 7.16 mg/mL; difference in solubility between the (S)-epimer and the (R)-epimer ([3]; in certain solvent mixtures): over 100 fold; epimer in solution ([5]; ACN solution, 5 mL): 11.03 mg/mL; epimer in solution ([5]; ACN solution, 10 mL): 11.00 mg/mL; epimer in solution ([5]; ACN solution, 15 mL): 10.67 mg/mL; epimer in solution ([5]; IPA solution, 5 mL): 18.20 mg/mL; epimer in solution ([5]; IPA solution, 10 mL): 12.83 mg/mL"
C[C@H](NP(=O)(OC[C@H]1O[C@@H](n2ccc(N)nc2=O)C(F)(F)C1O)Oc1ccccc1)C(=O)OCc1ccccc1 (stereo partly shown) [NUC-1031],–,–,–,–,–,–,–,–,–,–,–,–,–,–,–,–,–,–,–,–,solubility in water (Solubility in water): essentially insoluble in water
